Laboratory results taken from patent US20070270432A1, “Novel Method” (priority 2002, published 2007).

Legend:
[1] = tested on: hippocampal neurogenesis; conditions: literature; antidepressants given chronically; cited from earlier work
[2] = tested on: seizure threshold; conditions: rat MEST test, dose range 0.1-30 mg/kg; cited from earlier work
[3] = tested on: polysialylated neurons in layer II of the entorhinal and perirhinal cortex; experiment: NCAM PSA expression in medial temporal lobe after chronic administration; format: in vivo, rat; conditions: 20 mg/kg; for PSA immunopositive cell frequency: medial temporal lobe, 40 days by gavage
Protocol: Experimentally naïve postnatal day 80 (at the time of NCAM-PSA assessment) male Wistar rats were employed in all studies. All animals were housed singly and maintained at 22±2° C. on a standard 12 h-light/dark cycle with food and water available ad libitum. Animals were introduced to the experimental holding rooms at least 3 days prior to the commencement of any study. The frequency of polysialylated neurons in the rat medial temporal lobe was also examined following chronic exposure to 5-HT6 antagonist. […] Horizontal cryosections were cut from the frozen tissue at various levels with reference to Bregma (see above), these were thaw-mounted onto glass slides, which were coated with poly-[…] diluted 1:1 in dH2O, and immersion fixed for 30 minutes with 70% ethanol. The sections were then washed twice for 10 minutes each in 0.1M phosphate buffered saline (PBS) and incubated for 20 hours in a humidified chamber at room temperature with the primary antibody diluted 1:500 in PBS containing 1% bovin serum albumin (w/v) and 1% normal goat serum (v/v) to reduce non-specific staining. The humidified chamber prevented the sections from evaporating. The primary antibody was a monoclonal raised against PSA, which was provided by Professor G, Rougon (CNRS UMR 6545, 13288 Marseille, France). On completion of the primary antibody incubation, the sections were washed twice for ten minutes each in PBS and incubated at room temperature for 3 hours in the humidified chamber with the secondary antibody, at a dilution factor of 1:100, again in PBS containing 1% BSA and 1% NGS. The secondary antibody was a goat anti-mouse IgM conjugated to fluorescein (FITC). Following the second incubation, the sections ware again washed twice for ten minutes each in PBS, mounted in the fluorescence enhancing medium Citifluor® and observed for fluorescence with a Leitz DM RB fluorescent microscope. Quantitative image analysis was performed using the Leica Quantimet 500®, a P.C.-based software package, which was connected to the fluorescence microscope with a high sensitivity CCD video camera. Each microscope lens was calibrated for length and area measurements using a 1 mm graticule. […] Cell identification was aided by the use of the nuclear counter-stain propidium iodide (40 ng/ml PBS; 60 sec). […] This was done for each section and a mean±SEM was calculated for each brain with the results expressed as PSA-positive cells per unit area. […] Cell identification was again aided by the use of the nuclear counter-stain propidium iodide (40 ng/ml PBS; 60 sec) with the use of alternate sections eliminating the possibility of double counting. Cell counts were divided by the length of the cortex and multiplied by the average length of the cortex, which was taken to be 10 mm. This was completed for each section and a mean±SEM was calculated for each brain with the results expressed as PSA-positive cells per unit length. […] NCAM PSA-positive cell numbers were obtained from each animal group. Results were expressed as mean±SEM with at least 3-6 values per group and analysed by ANOVA or unpaired non-parametric, Student's t-test, as indicated. […] Drug administration ceased 24 h prior to animal sacrifice. Animal weight gain and general physical condition was monitored daily. Methylcellulose (1% w/v) treated controls and use of the antipyschotic clozapine were employed for comparison.

[4] = target: rat 5-HT6 receptors (Rattus norvegicus, UniProt P31388); conditions: cited from earlier work
[5] = tested on: BrdU-immunopositive cells in the hippocampal dentate granule cell layer; experiment: BrdU expression in hippocampal dentate granule cell layer (neurogenesis); format: in vivo, rat; conditions: for BrdU-immunopositive cell number/granule cell layer: 20 mg/kg, 40 days by gavage, BrdU 100 mg/kg i.p. last eight days; for effect on expression of BrdU-immunopositive cells / neurogenic rate: chronic 20 mg/kg, versus vehicle-treated controls
Protocol: (§1) Experimentally naïve postnatal day 80 (at the time of NCAM-PSA assessment) male Wistar rats were employed in all studies. All animals were housed singly and maintained at 22±2° C. on a standard 12 h-light/dark cycle with food and water available ad libitum. Animals were introduced to the experimental holding rooms at least 3 days prior to the commencement of any study.

[6] = tested on: NCAM PSA-immunoreactive neurons, dentate granule cell layer/hilar border; experiment: NCAM PSA expression in hippocampal dentate gyrus with water maze training; format: in vivo, rat; conditions: for effect on frequency of polysialylated neurons at 12 h following water maze training: versus untrained drug-treated and trained drug-naive animals
Protocol: as §1
(§2) Freshly dissected whole rat brain was carefully coated in optimum cutting temperature (OCT) compound and lowered into a Cryoprep freezing apparatus containing dry-ice-cooled n-hexane. The function of the OCT compound and n-hexane was to provide an even freezing of the tissue, thus avoiding freezing artefacts. Horizontal sections for all studies were cut semi-automatically or automatically on a Microm Series 500 cryostat. Fresh, frozen brain sections (12 μm) were cut at −15° C., while cryoprotected. All sections were prepared on the day of the experiment and were not pre-cut and stored frozen.
(§3) Horizontal cryosections were cut from the frozen tissue at various levels with reference to Bregma (see above), these were thaw-mounted onto glass slides, which were coated with poly-1-lysine diluted 1:1 in dH2O, and immersion fixed for 30 minutes with 70% ethanol. The sections were then washed twice for 10 minutes each in 0.1M phosphate buffered saline (PBS) and incubated for 20 hours in a humidified chamber at room temperature with the primary antibody diluted 1:500 in PBS containing 1% bovin serum albumin (w/v) and 1% normal goat serum (v/v) to reduce non-specific staining. The humidified chamber prevented the sections from evaporating. The primary antibody was a monoclonal raised against PSA, which was provided by Professor G, Rougon (CNRS UMR 6545, 13288 Marseille, France). On completion of the primary antibody incubation, the sections were washed twice for ten minutes each in PBS and incubated at room temperature for 3 hours in the humidified chamber with the secondary antibody, at a dilution factor of 1:100, again in PBS containing 1% BSA and 1% NGS. The secondary antibody was a goat anti-mouse IgM conjugated to fluorescein (FITC). Following the second incubation, the sections ware again washed twice for ten minutes each in PBS, mounted in the fluorescence enhancing medium Citifluor® and observed for fluorescence with a Leitz DM RB fluorescent microscope.
(§4) Quantitative image analysis was performed using the Leica Quantimet 500®, a P.C.-based software package, which was connected to the fluorescence microscope with a high sensitivity CCD video camera. Each microscope lens was calibrated for length and area measurements using a 1 mm graticule. The total number of NCAM PSA-immunoreactive neurons on the right dentate granule cell layer/hilar border were counted in 7 alternate 12 μm sections commencing −5.6 mm from Bregma (Paxinos and Watson, 1986), to preclude double counting of the 5-10 μm perikarya. Cell identification was aided by the use of the nuclear counter-stain propidium iodide (40 ng/ml PBS; 60 sec). The number of cells was then divided by the total area of the dentate granule cell layer and multiplied by the average granule cell layer area for a p80 rat, which is 0.15±0.01 mm^2 at this level. This was done for each section and a mean±SEM was calculated for each brain with the results expressed as PSA-positive cells per unit area. […] Cell identification was again aided by the use of the nuclear counter-stain propidium iodide (40 ng/ml PBS; 60 sec) with the use of alternate sections eliminating the possibility of double counting. Cell counts were divided by the length of the cortex and multiplied by the average length of the cortex, which was taken to be 10 mm. This was completed for each section and a mean±SEM was calculated for each brain with the results expressed as PSA-positive cells per unit length.
In this protocol animals were introduced to the training environment 5 days prior to training, and individually housed according to standard conditions. […]

[7] = tested on: NCAM PSA-immunoreactive neurons, dentate granule cell layer/hilar border; experiment: NCAM PSA expression in hippocampal dentate gyrus after chronic administration; format: in vivo, rat; conditions: for PSA immunopositive cell frequency: hippocampal dentate; for effect on frequency of polysialylated neurons in the subventricular zone of the rat hippocampal dentate gyrus: chronic administration, versus vehicle-treated control
Protocol: as §1, §2, §3, §4
NCAM PSA-positive cell numbers were obtained from each animal group.

[8] = in vivo; cited from earlier work
[9] = tested on: retention of a spacial memory task; conditions: rat, 10 mg/kg p.o.; cited from earlier work
[10] = Example 3, 20 mg/kg, 40 days by gavage

rat 5-HT6 receptors, sequence (P31388 whole entry): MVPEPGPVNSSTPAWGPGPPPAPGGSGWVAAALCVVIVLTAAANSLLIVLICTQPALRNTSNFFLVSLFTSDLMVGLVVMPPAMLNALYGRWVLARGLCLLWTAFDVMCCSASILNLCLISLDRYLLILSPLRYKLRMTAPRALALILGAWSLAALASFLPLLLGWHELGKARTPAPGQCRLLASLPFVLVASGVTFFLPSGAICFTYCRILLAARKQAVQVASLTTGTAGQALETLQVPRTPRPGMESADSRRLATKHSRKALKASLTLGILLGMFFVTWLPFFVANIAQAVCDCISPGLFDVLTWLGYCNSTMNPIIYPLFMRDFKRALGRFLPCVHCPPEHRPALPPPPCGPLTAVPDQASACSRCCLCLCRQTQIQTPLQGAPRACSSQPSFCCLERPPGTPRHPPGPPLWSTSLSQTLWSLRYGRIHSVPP

## N[C@@H]1C[C@H]1c1ccccc1 (racemic) [tranylcypromine]
[1]
  effect on hippocampal neurogenesis: stimulate hippocampal neurogenesis

## CCOC(=O)[C@H](N)/C=C(\C)CP(=O)(O)O [CGP43487]
[1]
  effect on hippocampal neurogenesis: reduce the rate of hippocampal neurogenesis

## COc1ccc(NS(=O)(=O)c2sc3ccc(Cl)cc3c2C)cc1N1CCNCC1.Cl [SB271046, 5-Chloro-3-methylbenzo[b]thiophene-2-sulfonic acid (4-methoxy-3-piperazin-1-ylphenyl)amide hydrochloride]
[2]
  seizure threshold: increases seizure threshold
[3]; chronic exposure
  effect on frequency of polysialylated neurons in the rat medial temporal lobe: increased
[3]; Bregma level -7.1 mm
  PSA immunopositive cell frequency: 61.7 ± 1.7 PSA-positive cells per unit length
[3]; Bregma level -7.6 mm
  PSA immunopositive cell frequency: 69.9 ± 0.9 PSA-positive cells per unit length
[3]; Bregma level -8.1 mm
  PSA immunopositive cell frequency: 125.4 ± 3.5 PSA-positive cells per unit length
[3]; Bregma level -8.6 mm
  PSA immunopositive cell frequency: 178.3 ± 12.2 PSA-positive cells per unit length
[4]
  pKi: 9.0
[5]
  BrdU-immunopositive cell number/granule cell layer: 2332 ± 136.5
  effect on expression of BrdU-immunopositive cells / neurogenic rate: without altering neurogenic rate
[6]; Example 2, acute 20 mg/kg by gavage 30 min before water maze training, 12 h post-training
  PSA immunopositive cell frequency: 96.0 ± 5.5 PSA-positive cells per unit area
[6]; Example 2, acute 20 mg/kg by gavage, untrained
  PSA immunopositive cell frequency: 64.2 ± 4.3 PSA-positive cells per unit area
[6]; Example 2, chronic 20 mg/kg, 40 days by gavage, 12 h post water maze training
  PSA immunopositive cell frequency: 109.8 ± 1.8 PSA-positive cells per unit area
[6]; Example 2, chronic 20 mg/kg, 40 days by gavage, untrained
  PSA immunopositive cell frequency: 85.8 ± 1.3 PSA-positive cells per unit area
[6]; acute 20 mg/kg
  effect on frequency of polysialylated neurons at 12 h following water maze training: significantly increase
[7]; Example 1, 3 mg/kg, 40 days by gavage
  PSA immunopositive cell frequency: 70.3 ± 3.9 PSA-positive cells per unit area
[7]; Example 1, 10 mg/kg, 40 days by gavage
  PSA immunopositive cell frequency: 82.4 ± 1.7 PSA-positive cells per unit area
[7]; Example 1, 20 mg/kg, 40 days by gavage
  PSA immunopositive cell frequency: 85.8 ± 8.4 PSA-positive cells per unit area
[7]; [10]
  PSA immunopositive cell frequency: 78.3 ± 3.4 PSA-positive cells per unit area
[7]; Example 3 repeat, 20 mg/kg chronic
  frequency of polysialylated neurons in repeat group compared with Example 1: no difference
[7]
  effect on frequency of polysialylated neurons in the subventricular zone of the rat hippocampal dentate gyrus: significantly increase
[8]
  oral bioavailability: orally bioavailable
[9]
  retention of a spacial memory task: significant improvements

## COc1ccc(S(=O)(=O)Nc2cc(Cl)cc(Cl)c2OC)cc1N1CCNCC1.Cl [SB399885, N-(3,5-dichloro-2-methoxy-phenyl)-4-methoxy-3-piperazin-1-yl-benzenesulfonamide hydrochloride]
[5]
  BrdU-immunopositive cell number/granule cell layer: 2296.7 ± 49.1
  effect on expression of BrdU-immunopositive cells / neurogenic rate: without altering neurogenic rate
[6]; Example 4, chronic 20 mg/kg, 40 days by gavage, 12 h post water maze training
  PSA immunopositive cell frequency: 125.9 ± 4.7 PSA-positive cells per unit area
[6]; Example 4, chronic 20 mg/kg, 40 days by gavage, untrained
  PSA immunopositive cell frequency: 104.2 ± 4.4 PSA-positive cells per unit area
[6]; chronic 20 mg/kg, Student's t-test P=0.0337
  increase in frequency of hippocampal polysialylated neurons 12 h following water maze training compared with SB271046 of Example 2: significantly greater
[6]; chronic 20 mg/kg
  effect on frequency of polysialylated neurons at 12 h following water maze training: significantly increase
[7]; Example 3, 3 mg/kg, 40 days by gavage
  PSA immunopositive cell frequency: 81.4 ± 5.3 PSA-positive cells per unit area
[7]; Example 3, 10 mg/kg, 40 days by gavage
  PSA immunopositive cell frequency: 87.4 ± 5.4 PSA-positive cells per unit area
[7]; [10]
  PSA immunopositive cell frequency: 104.2 ± 4.4 PSA-positive cells per unit area
[7]
  effect on frequency of polysialylated neurons in the subventricular zone of the rat hippocampal dentate gyrus: significantly increase
[7]; chronic treatment, analysis of variance F[1,21]=5.882, P=0.0244
  dose dependent increase in basal frequency of hippocampal polysialylated neurons compared with SB271046 of Example 1: significantly greater

## NCCc1c[nH]c2ccc(O)cc12 [Serotonin]
[1]
  effect on hippocampal neurogenesis: stimulate hippocampal neurogenesis

## CN1CCN(C2=Nc3cc(Cl)ccc3Nc3ccccc32)CC1 [clozapine, reference compound]
[7]; Example 1, 5 mg/kg, chronic comparison group
  PSA immunopositive cell frequency: 69.8 ± 1.6 PSA-positive cells per unit area

## CNCCC(Oc1ccc(C(F)(F)F)cc1)c1ccccc1 (stereo not shown) [fluoxetine]
[1]
  effect on hippocampal neurogenesis: stimulate hippocampal neurogenesis

## CN1CC[C@]23c4c5ccc(O)c4O[C@H]2[C@@H](O)C=C[C@H]3[C@H]1C5 [morphine]
[1]
  effect on hippocampal neurogenesis: reduce the rate of hippocampal neurogenesis

## CCOc1ccccc1OC(c1ccccc1)C1CNCCO1 (stereo not shown) [reboxetine]
[1]
  effect on hippocampal neurogenesis: stimulate hippocampal neurogenesis
